# Source: patent US10059712B2, “N-benzyl tryptanthrin derivative, and preparation method and application thereof” (priority 2013, dated 2018)
# Like-named read-outs stand apart in the source and are kept apart here.
# Legend:
# T lymphocytes = assay: T-cell proliferation assay (spleen lymphocytes + LLC cells, WST-1); type: cell-based, mice; conditions: 50 μM IDO inhibitor, 72 hours
# Procedure: Isolation of Spleen Lymphocytes (Performed in Accordance with the Lymphocyte Separation Medium Instructions):
# 1. Two mice were sacrificed by cervical dislocation and spleens were removed on a sterile table and placed into a 6 cm plate containing an RP1640 culture medium for later use.
# 2. A 100 μm mesh was placed in a 50 mL centrifuge tube and each spleen was cut into smaller pieces using scissors, milled on top of the sieve and a small amount of RP1640 was added for preservation purposes.
# 3. A lymphocyte separation medium equivalent to twice the volume of the resulting slurry was then added.
# 4. Centrifugation was performed at 800 g for 20 minutes, after which three distinct layers were visible, with the middle layer showing a slight yellowish tint.
# 5. Cells in the middle layer were removed and an RP1640 culture medium was added to perform a reverse wash. Cells were then centrifuged at 250 g for 10 minutes at room temperature, and the cells were collected.
# 6. The culture medium was aspirated off and cells were resuspended in the RP1640 medium, after which a cell count was performed.
# LLC (Lewis Lung Carcinoma) Cell Treatment:
# 1. A medium (high glucose DMEM, 10% FBS) was aspirated off and washing was performed 1-2 times using PBS;
# 3. The trypsin was aspirated off and a culture medium was added, after which cells were pipetted off and transferred to a 1.5 mL centrifuge tube;
# 4. Centrifugation followed by aspiration of the supernatant was performed, and cells were resuspended in 1 mL of the DMEM culture medium;
# 5. Mitomycin C (final concentration: 25 μg/mL) was added, the mixture was pipetted up and down until homogeneous, and the mixture was placed in a 37° C. bath for 30 minutes;
# 6. Washing was performed 3 times with RP1640, the cells were counted and the sample was set aside.
# 1. Treated LLC cells (2×10^4 cells/well; stimulator cells) and spleen lymphocytes (10^5 cells/well; reaction cells) were added to a 96-well plate, after which RP1640 (10% FBS was added to bring the volume to 200 μL;
# 3. A WST-1 reagent kit was used to measure T-cell proliferation, and absorbance values at a wavelength of 450 nm were measured using a plate reader;
# 4. […] Experimental Results
# Lewis lung carcinoma [1] = test system: Lewis lung carcinoma
# Lewis lung carcinoma [2] = assay: LLC Lewis tumor model, prophylactic administration; conditions: for tumor inhibition rate, tumor volume basis / tumor inhibition rate, tumor weight basis: prophylactic administration; for tumor formation, days after the start of administration: prophylactic administration via gavage, test compound: high dosage group
# IDO [3] = target: T1, IDO (Homo sapiens, UniProt P14902); assay: Measurement of median effective inhibition concentration IC50 (IDO enzyme); type: biochemical; design: made in house; host or cells: Escherichia coli
# T1 sequence (P14902 whole entry): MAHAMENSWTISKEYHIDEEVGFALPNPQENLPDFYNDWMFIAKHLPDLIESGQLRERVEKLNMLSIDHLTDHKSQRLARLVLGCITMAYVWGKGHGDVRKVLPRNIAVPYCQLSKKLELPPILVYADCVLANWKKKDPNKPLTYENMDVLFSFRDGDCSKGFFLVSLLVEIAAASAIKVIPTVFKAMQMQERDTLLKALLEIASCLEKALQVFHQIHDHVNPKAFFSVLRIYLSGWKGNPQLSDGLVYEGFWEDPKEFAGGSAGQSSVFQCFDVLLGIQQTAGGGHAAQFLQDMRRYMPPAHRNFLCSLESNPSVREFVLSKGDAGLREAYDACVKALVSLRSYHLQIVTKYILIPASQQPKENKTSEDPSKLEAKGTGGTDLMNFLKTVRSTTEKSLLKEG
# Procedure: (§1) The IDO inhibitory activity with respect to each compound was detected using the methods described in the literature. 50 mM potassium phosphate buffer (pH 6.5), 40 mM vitamin C, 400 μg/ml catalase, 20 μM methylene blue and IDO enzyme were mixed together in a 96-well plate. The substrate L-tryptophan and the sample to be tested were then added to the aforementioned mixture. The reaction was carried out for 60 minutes at 37° C., after which the reaction was terminated by adding 30% (w/v) trichloroacetic acid. The 96-well plate was heated to 65° C. for 15 minutes to complete the conversion from formylkynurenine to kynurenine, and centrifugation was performed with 6000 g for 5 minutes. 100 μl of supernatant was removed from each well and transferred to a new 96-well plate, after which an acetic acid solution of 2% (w/v) p-(dimethylamino)benzaldehyde was added, and the yellow color produced as a result of the resulting reaction with kynurenine was observable at 490 nm in a microplate reader; the experimental results are shown in Table 1.
# 50 mM potassium phosphate buffer (pH 6.5), 40 mM vitamin C, 400 μg/ml catalase, 20 μM methylene blue, […] of the substrate L-tryptophan and inhibitor were mixed together.
# IDO [4] = target: T1, IDO; assay: Determining inhibitor type and Ki value measurement (Dixon plot); type: biochemical; design: made in house; host or cells: Escherichia coli
# Procedure: as §1
# IDO [5] = target: T1, IDO; assay: Measurement of IC50 (cells): HEK 293 cells transfected with pcDNA3.1-hIDO plasmid; type: cell-based; design: expressed in transfected cells; host or cells: HEK 293; conditions: as headed in Table 1, column 3; read-out: IC50 (μM) (Cell)
# Procedure: The liposome Lipofectamin 2000 was used to transfect HEK 293 cells with the pcDNA3.1-hIDO plasmid. When measuring the inhibition activity at the cellular level, the HEK293 cell culture medium corresponded to high glucose DMEM, containing 50 U/mL penicillin, 50 U/mL streptomycin and 10% FBS, and culturing was performed at 37° C. under 5% CO2.
# [6] = 200 mg/kg via gavage, two weeks, post-inoculation
# [7] = high dosage group 150 mg/kg via gavage
# [8] = low dosage group 75 mg/kg via gavage
compound,measurement,setting,value
"O=C1c2cc(F)ccc2-n2c1nc1ccc(CN3CCNCC3)cc1c2=O [Embodiment Example 3, 8-fluoro-2-(piperazin-1-ylmethyl)indolo[2,1-b]quinazoline-6,12-dione]",T-Cell Proliferation Rate,T lymphocytes,40.64%
"O=C1c2cc(F)ccc2-n2c1nc1ccc(CN3CCOCC3)cc1c2=O [Embodiment Example 5, 8-fluoro-2-((morpholino-1-yl)methyl)indolo[2,1-b]quinazoline-6,12-dione]",T-Cell Proliferation Rate,T lymphocytes,50.27%
"CN(C)Cc1ccc2nc3n(c(=O)c2c1)-c1ccc(F)cc1C3=O [Embodiment Example 1, 2-((dimethylamino)methyl)-8-fluoro-indolo[2,1-b]quinazoline-6,12-dione]",T-Cell Proliferation Rate,T lymphocytes,4.88%
CC(=O)O[C@H]1C(=O)[C@@]2(C)[C@H]([C@H](OC(=O)c3ccccc3)[C@]3(O)C[C@H](OC(=O)[C@H](O)[C@@H](NC(=O)c4ccccc4)c4ccccc4)C(C)=C1C3(C)C)[C@]1(OC(C)=O)CO[C@@H]1C[C@@H]2O [paclitaxel],"tumor inhibition rate, tumor volume basis","Lewis lung carcinoma [1]; 100 mg/kg intravenous injection once per week, post-inoculation",51.45%
same,toxic side effects observed in mice,"Lewis lung carcinoma [1]; mouse, in vivo","losing weight, losing their fur and showing less movement in general"
"CC(C)(C)OC(=O)N1CCN(Cc2ccc3nc4n(c(=O)c3c2)-c2ccc(F)cc2C4=O)CC1 [Embodiment Example 2, 4-((8-fluoro-6,12-dioxo-6,12-dihydroxy-indolo[2,1-b]quinolin-2-yl)methyl)piperazine-1-carboxylic acid tert-butyl ester]",T-Cell Proliferation Rate,T lymphocytes,38.48%
"Cn1cc(C[C@H](N)C(=O)O)c2ccccc21 [1-MT, 1-methyl-tryptophan, reference compound]",in vivo Lewis lung carcinoma tumor growth compared to the control group,Lewis lung carcinoma [1]; [6],significant inhibition
same,"tumor inhibition rate, tumor volume basis",Lewis lung carcinoma [1]; [6],15.68%
same,"tumor inhibition rate, tumor volume basis",Lewis lung carcinoma [2]; [7],32.35%
same,"tumor inhibition rate, tumor weight basis",Lewis lung carcinoma [2]; [7],28.2%
same,"tumor inhibition rate, tumor volume basis",Lewis lung carcinoma [2]; [8],27.00%
same,"tumor formation, days after the start of administration",Lewis lung carcinoma [2],13 days
"Cc1ccc2nc3n(c(=O)c2c1)-c1ccccc1C3=O [Comparative Example, 2-methyl-indole[2,1-b]quinazoline-6,12-dione, reference compound]",IC50,"IDO [3]; method of Embodiment Example 9-11, read-out: IDO inhibitory activity in vitro IC50",997 µM
"CN1CCN(Cc2ccc3nc4n(c(=O)c3c2)-c2ccccc2C4=O)CC1 [Embodiment Example 6, 2-((4-methyl-piperazin-1-yl)methyl)indolo[2,1-b]quinazoline-6,12-dione]",T-Cell Proliferation Rate,T lymphocytes,39.40%
same,Inhibition Type,IDO [4]; Dixon plot (1/v-[I]),Anticompetitive
same,Ki,"IDO [4]; plot of S/v-[I], read-out: Ki (μM) (in vitro)",5.97 µM
same,IC50,"IDO [3]; as headed in Table 1, column 4, read-out: IC50",0.97 µM
same,IC50,IDO [5],2.52 µM
CN1CCN(Cc2ccc3nc4n(c(=O)c3c2)-c2ccc(F)cc2C4=O)CC1 [Embodiment Example 4],T-Cell Proliferation Rate,T lymphocytes,41.24%
same,"tumor inhibition rate, tumor volume basis",Lewis lung carcinoma [1]; [6],23.38%
same,"tumor inhibition rate, tumor volume basis",Lewis lung carcinoma [2]; [7],62.15%
same,"tumor inhibition rate, tumor weight basis",Lewis lung carcinoma [2]; [7],57.8%
same,"tumor inhibition rate, tumor volume basis",Lewis lung carcinoma [2]; [8],46.62%
same,"tumor formation, days after the start of administration",Lewis lung carcinoma [2],> 20 days
